Assays:
[1] = system: urethral smooth muscles; assay: in vitro contraction of rabbit urethra rings; assay type: cell-based; settings: Oryctolagus cuniculus, read-out: urethral pD2 (converted)
Description: (§1) The in vitro activity of the compounds of the invention was studied on urethral and arterial smooth muscles.
(§2) These experiments were carried out on female New Zealand rabbits weighing from 3 to 3.5 kg. The animals were killed by vertebral dislocation, and rings of tissue were then removed from mesenteric arteries and from the urethra. These rings of tissue were immersed in a modified Krebs solution and oxygenated with a mixture of 95% O2 and 5% CO2. Each sample of tissue was subjected to a tension of 1 g, phenylephrine was then introduced at cumulative doses and the dose/response curve was established. After rinsing of the samples, the test compound was introduced at cumulative doses and the dose/response curve was established. The α1 -adrenergic effect of each compound is evaluated by calculating the pD2 (negative logarithm of the concentration of antagonist in the presence of which the effect of a dose of the agonist is divided by 2), as well as by the maximum effect representing the percentage of the maximum contraction obtained with phenylephrine (% Emax)

[2] = system: arterial smooth muscles; assay: in vitro contraction of rabbit mesenteric artery rings; assay type: cell-based; settings: Oryctolagus cuniculus, read-out: arterial pD2 (converted)
Description: as §1, §2

EC50 [1]: 3.16 to 6.31 µM
EC50 [2]: 3.16 to 6.31 µM
Compound: CNC[C@H](O)c1cccc(O)c1 [phenylephrine]

— patent publication US6214882A, “Benzenesulphonamide derivatives, preparation thereof and therapeutical uses thereof” (Synthelabo, priority 1995, dated 2001)
